{"source": "patent EP0499162A2", "about": "“GM-CSF inhibiting oligopeptides” (Bristol-Myers Squibb Company, priority 1991, dated 1992)", "test_system": "GM-CSF", "experiment": "GM-CSF activity on bone marrow precursors (liquid culture, methylene blue dye absorbance of adherent granulocytes and macrophages)", "format": "cell-based, murine", "settings": "at any of the test concentrations (Figure 2)", "description": "To determine the effect of the desired inhibitory oligopeptide, the following assay, using murine bone marrow precursors, was developed. Of course, if using an oligopeptide derivable from a species other than murine, substitution of cells from that species into the assay procedure would be required.\nThe biological activity of GM-CSF was determined in a liquid culture system of murine bone marrow cells (see, e.g., I. Bursuker, et al., J. Reticuloendothelial Soc., 25, 533 (1979)). Bone marrow cells were collected from femurs and tibia of 10 to 12 week old CB6F1 (C57BLxBalb/c) male mice (Harlan-Sprague Dawley, Inc., Indianapolis, Indiana) by flushing dissected and clean bones with phosphate buffered saline (\"PBS\", GIBCO, Grand Island, New York). Viable cell count was determined using trypan blue. The cells then were plated (1 ml/well; 2 X 10^5 cells/ml) in 24-well tissue culture plates (Costar, Cambridge, MA). Granulocyte-macrophage colony stimulating factor (\"GM-CSF\"; 2 ng/ml; recombinantly produced and available from PeproTech, Inc., Rocky Hill, NJ) and the desired oligopeptide were added at the desired concentration to the wells. […] The dye absorbance was measured at 620 nm in a MCC/340 Titertech Multiscan plate reader (Eflab, Helsinki, Finland). The dye absorbance reading is proportional to the number of cells in the culture.", "note": "Where no end group is shown, it is not given here.", "data": [{"sequence": "YYQTYCPPTPETD [Oligopeptide P96-109, oligopeptide spanning a region of the murine GM-CSF molecule, 13 amino acids]", "values": [{"measurement": "effect on the biological activity of GM-CSF", "result": "did not affect"}]}]}
